Reference: article PMC3646808, “Aggregate-Reactivation Activity of the Molecular Chaperone ClpB from Ehrlichia chaffeensis” (PLoS ONE, 2013)

Tests used:
EhClpB = target: T1, EhClpB (Ehrlichia chaffeensis, UniProt Q2GH96); conditions: 5 mM ATP, 10 mM MgCl2, 100 mM Tris/HCl pH 8.0, 37 °C; basal activity
T1 construct: gene clpB

EcClpB [1] = target: T2, EcClpB (Escherichia coli, UniProt P63284); assay: phosphate release ATPase assay; format: biochemical; conditions: 5 mM ATP, 10 mM MgCl2, 100 mM Tris/HCl pH 8.0, 37 °C; basal activity
T2 construct: gene clpB; purified, produced or obtained as previously described; hexamer
T2 sequence (P63284 whole entry): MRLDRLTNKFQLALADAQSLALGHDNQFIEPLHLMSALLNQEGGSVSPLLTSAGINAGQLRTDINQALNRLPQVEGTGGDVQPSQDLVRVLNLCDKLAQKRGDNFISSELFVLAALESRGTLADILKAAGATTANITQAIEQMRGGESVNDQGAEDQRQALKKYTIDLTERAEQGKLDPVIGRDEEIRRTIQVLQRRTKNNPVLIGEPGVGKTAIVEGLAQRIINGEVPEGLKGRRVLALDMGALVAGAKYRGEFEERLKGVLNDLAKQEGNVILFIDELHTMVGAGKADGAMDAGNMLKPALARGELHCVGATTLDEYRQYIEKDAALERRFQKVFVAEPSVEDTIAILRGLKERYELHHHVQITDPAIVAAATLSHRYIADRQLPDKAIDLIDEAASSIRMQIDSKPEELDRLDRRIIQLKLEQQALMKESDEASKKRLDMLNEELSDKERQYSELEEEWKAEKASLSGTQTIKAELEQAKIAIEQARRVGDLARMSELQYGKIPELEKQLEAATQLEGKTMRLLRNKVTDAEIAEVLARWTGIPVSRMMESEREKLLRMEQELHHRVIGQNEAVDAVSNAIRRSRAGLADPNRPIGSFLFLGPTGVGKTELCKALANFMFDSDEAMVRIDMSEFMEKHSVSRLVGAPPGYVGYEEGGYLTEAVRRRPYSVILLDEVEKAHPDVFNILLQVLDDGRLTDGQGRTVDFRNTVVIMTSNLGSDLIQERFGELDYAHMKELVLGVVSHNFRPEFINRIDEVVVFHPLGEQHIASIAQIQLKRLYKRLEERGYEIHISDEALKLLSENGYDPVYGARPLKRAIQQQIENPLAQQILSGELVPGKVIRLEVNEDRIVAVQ

EcClpB [2] = target: T2, EcClpB; assay: filter retention with SDS-PAGE, nucleotide-induced binding to aggregated G6PDH; conditions: 6 mM nucleotide, 20 mM Mg(OAc)2, 50 mM Tris/HCl pH 7.5, 30 °C; indirect read-out
[3] = target: ClpB from Ehrlichia chaffeensis (E. chaffeensis); assay: AUC; sedimentation velocity, 48,000 rpm, 20°C, 0.3 mg/ml protein in 50 mM Hepes/KOH pH 7.5, 0.2 M KCl, 20 mM MgCl2, 1 mM EDTA, 2 mM β-mercaptoethanol, with 2 mM ATPγS

T1 sequence (Q2GH96 entry or part of it): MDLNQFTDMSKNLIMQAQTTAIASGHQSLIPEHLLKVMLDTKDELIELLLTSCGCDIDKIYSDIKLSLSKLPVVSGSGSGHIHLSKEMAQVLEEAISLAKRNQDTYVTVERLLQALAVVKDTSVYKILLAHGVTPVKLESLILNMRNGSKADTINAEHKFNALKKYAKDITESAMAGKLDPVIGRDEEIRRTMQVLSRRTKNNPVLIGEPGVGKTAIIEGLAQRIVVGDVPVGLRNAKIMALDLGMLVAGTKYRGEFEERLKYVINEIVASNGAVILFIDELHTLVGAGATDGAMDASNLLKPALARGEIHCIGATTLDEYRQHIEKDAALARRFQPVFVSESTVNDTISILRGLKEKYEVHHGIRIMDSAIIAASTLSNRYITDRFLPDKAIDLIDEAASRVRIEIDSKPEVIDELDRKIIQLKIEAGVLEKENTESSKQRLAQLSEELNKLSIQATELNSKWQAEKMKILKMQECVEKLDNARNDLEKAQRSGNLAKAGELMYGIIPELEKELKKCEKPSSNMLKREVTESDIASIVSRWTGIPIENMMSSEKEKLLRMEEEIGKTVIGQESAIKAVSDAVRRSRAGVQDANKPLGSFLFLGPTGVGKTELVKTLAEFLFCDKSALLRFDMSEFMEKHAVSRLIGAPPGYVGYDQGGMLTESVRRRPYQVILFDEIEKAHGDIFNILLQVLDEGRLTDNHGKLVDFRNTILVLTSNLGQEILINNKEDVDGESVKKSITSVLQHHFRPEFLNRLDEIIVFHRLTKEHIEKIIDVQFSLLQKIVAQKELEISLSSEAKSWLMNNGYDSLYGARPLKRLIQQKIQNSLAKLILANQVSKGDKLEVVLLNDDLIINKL

For `Nc1ncnc2c1ncn2[C@@H]1O[C@H](COP(=O)(O)OP(=O)(O)OP(=O)(O)O)[C@@H](O)[C@H]1O` [ATP], the “phosphate release ATPase assay” value (EhClpB) was “the basal ATPase of EhClpB was similar to that of the purified EcClpB” and the “phosphate release ATPase assay” value (EcClpB [1]) was “the basal ATPase of EhClpB was similar to that of the purified EcClpB”.
`Nc1ncnc2c1ncn2[C@@H]1O[C@H](COP(=O)(O)OP(=O)(O)OP(O)(O)=S)[C@@H](O)[C@H]1O` [ATPγS, adenosine-5'-(γ-thio)-triphosphate] was tested, and the “filter retention with SDS-PAGE, nucleotide-induced binding to aggregated G6PDH” value (EcClpB [2]) was “only ATPγS induces significant binding of EcClpB to the aggregates”.
Compound “ClpB from Ehrlichia chaffeensis (natural protein)” has a stoichiometry N [3] of 6.
